Measurements taken from ChEMBL document CHEMBL3885861, “Open TG-GATES”.

Organism: Rattus norvegicus
Assay: Open TG-GATES - Regimen: Single
Assay type: toxicity, organism-based, Sprague-Dawley
Set-up: regimen Single, gender Male, age 6 weeks
Conditions: in vivo, ip, 40 mg/kg, route intraperitoneal injection, dose level Low; for APTT / Bas / Eos / Fbg / Hb / Ht / Lym / MCH / MCHC / MCV / Mono / Neu / PT / Plat / RBC / Ret / WBC: tissue Blood; for KIDNEY_L / KIDNEY_R / KIDNEY_TOTAL: tissue Kidney; for LIVER: tissue Liver; for A/G / ALP / ALT / AST / BUN / CRE / Ca / Cl / DBIL / GLC / IP / K / LDH / Na / PL / RALB / TBIL / TC / TG / TP / gamma-GTP: tissue Plasma

CC(C)=CC(=O)C=C(C)C [PHORONE]
TERMINAL_BW (3 h): 219.9 g | APTT (3 h): 16.7 s | Bas (3 h): 0% | Eos (3 h): 0.8% | Fbg (3 h): 211 mg/dL | Hb (3 h): 13.1 g/dL | Ht (3 h): 39.1% | Lym (3 h): 69.8% | MCH (3 h): 21.6 pg | MCHC (3 h): 33.5% | MCV (3 h): 64.4 fL | Mono (3 h): 8.4% | Neu (3 h): 21.2% | PT (3 h): 12.2 s | Plat (3 h): 112.1 x10_4/uL | RBC (3 h): 608 x10_4/ul | Ret (3 h): 9.2% | WBC (3 h): 105.8 x10_2/uL | KIDNEY_L (3 h): 1 g | KIDNEY_R (3 h): 1 g | KIDNEY_TOTAL (3 h): 2 g | LIVER (3 h): 10.5 g | A/G (3 h): 2.3 | ALP (3 h): 735.6 IU/L | ALT (3 h): 36.4 IU/L | AST (3 h): 78.6 IU/L | BUN (3 h): 14.8 mg/dL | CRE (3 h): 0.6 mg/dL | Ca (3 h): 10.6 mg/dL | Cl (3 h): 106 meq/L | DBIL (3 h): 0.034 mg/dL | GLC (3 h): 193.6 mg/dL | IP (3 h): 10.3 mg/dL | K (3 h): 4.8 meq/L | LDH (3 h): 83.8 IU/L | Na (3 h): 139 meq/L | PL (3 h): 133.6 mg/dL | RALB (3 h): 3.6 g/dL | TBIL (3 h): 0.4 mg/dL | TC (3 h): 75.4 mg/dL | TG (3 h): 46 mg/dL | TP (3 h): 5.2 g/dL | gamma-GTP (3 h): 2.4 IU/L | TERMINAL_BW (6 h): 219.1 g | APTT (6 h): 17.2 s | Bas (6 h): 0% | Eos (6 h): 0.6% | Fbg (6 h): 216.8 mg/dL | Hb (6 h): 13.5 g/dL | Ht (6 h): 40.3% | Lym (6 h): 66.2% | MCH (6 h): 21.6 pg | MCHC (6 h): 33.4% | MCV (6 h): 64.8 fL | Mono (6 h): 6.6% | Neu (6 h): 26.8% | PT (6 h): 12.3 s | Plat (6 h): 114.9 x10_4/uL | RBC (6 h): 621.6 x10_4/ul | Ret (6 h): 9% | WBC (6 h): 90 x10_2/uL | KIDNEY_L (6 h): 1 g | KIDNEY_R (6 h): 1 g | KIDNEY_TOTAL (6 h): 2.1 g | LIVER (6 h): 9.8 g | A/G (6 h): 2.2 | ALP (6 h): 814.6 IU/L | ALT (6 h): 36.2 IU/L | AST (6 h): 70.8 IU/L | BUN (6 h): 13.8 mg/dL | CRE (6 h): 0.5 mg/dL | Ca (6 h): 10.8 mg/dL | Cl (6 h): 105 meq/L | DBIL (6 h): 0.048 mg/dL | GLC (6 h): 193.4 mg/dL | IP (6 h): 10.1 mg/dL | K (6 h): 4.9 meq/L | LDH (6 h): 76 IU/L | Na (6 h): 138.2 meq/L | PL (6 h): 126.4 mg/dL | RALB (6 h): 3.6 g/dL | TBIL (6 h): 0.5 mg/dL | TC (6 h): 72.2 mg/dL | TG (6 h): 36.6 mg/dL | TP (6 h): 5.3 g/dL | gamma-GTP (6 h): 1.6 IU/L
